Measurements taken from patent US20240109917A1 (ACTELION PHARMACEUTICALS LTD, priority 2020, published 2024).
Like-named read-outs stand apart in the source and are kept apart here.

Legend:
PDGFRβ = PDGFRβ (Rattus norvegicus (Rat), UniProt Q05030); test: PDGFRβ Cellular Assay (PDGFRb P-Y751 HTRF in A10 cells stimulated with PDGF-BB); assay type: cell-based
In short: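 Rat A10 cells, plated overnight, were treated with compound for 3 hours, then stimulated with PDGF-BB (working stock 100 ng/mL in 10% FBS medium). After lysis, PDGFRβ P-Y751 was detected by HTRF.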

VEGFR2, unphosphorylated = VEGFR2, unphosphorylated (Homo sapiens (Human), UniProt P35968); test: VEGFR ADP GLO Assay; assay type: biochemical
Sequence of VEGFR2, unphosphorylated (P35968 20-1356): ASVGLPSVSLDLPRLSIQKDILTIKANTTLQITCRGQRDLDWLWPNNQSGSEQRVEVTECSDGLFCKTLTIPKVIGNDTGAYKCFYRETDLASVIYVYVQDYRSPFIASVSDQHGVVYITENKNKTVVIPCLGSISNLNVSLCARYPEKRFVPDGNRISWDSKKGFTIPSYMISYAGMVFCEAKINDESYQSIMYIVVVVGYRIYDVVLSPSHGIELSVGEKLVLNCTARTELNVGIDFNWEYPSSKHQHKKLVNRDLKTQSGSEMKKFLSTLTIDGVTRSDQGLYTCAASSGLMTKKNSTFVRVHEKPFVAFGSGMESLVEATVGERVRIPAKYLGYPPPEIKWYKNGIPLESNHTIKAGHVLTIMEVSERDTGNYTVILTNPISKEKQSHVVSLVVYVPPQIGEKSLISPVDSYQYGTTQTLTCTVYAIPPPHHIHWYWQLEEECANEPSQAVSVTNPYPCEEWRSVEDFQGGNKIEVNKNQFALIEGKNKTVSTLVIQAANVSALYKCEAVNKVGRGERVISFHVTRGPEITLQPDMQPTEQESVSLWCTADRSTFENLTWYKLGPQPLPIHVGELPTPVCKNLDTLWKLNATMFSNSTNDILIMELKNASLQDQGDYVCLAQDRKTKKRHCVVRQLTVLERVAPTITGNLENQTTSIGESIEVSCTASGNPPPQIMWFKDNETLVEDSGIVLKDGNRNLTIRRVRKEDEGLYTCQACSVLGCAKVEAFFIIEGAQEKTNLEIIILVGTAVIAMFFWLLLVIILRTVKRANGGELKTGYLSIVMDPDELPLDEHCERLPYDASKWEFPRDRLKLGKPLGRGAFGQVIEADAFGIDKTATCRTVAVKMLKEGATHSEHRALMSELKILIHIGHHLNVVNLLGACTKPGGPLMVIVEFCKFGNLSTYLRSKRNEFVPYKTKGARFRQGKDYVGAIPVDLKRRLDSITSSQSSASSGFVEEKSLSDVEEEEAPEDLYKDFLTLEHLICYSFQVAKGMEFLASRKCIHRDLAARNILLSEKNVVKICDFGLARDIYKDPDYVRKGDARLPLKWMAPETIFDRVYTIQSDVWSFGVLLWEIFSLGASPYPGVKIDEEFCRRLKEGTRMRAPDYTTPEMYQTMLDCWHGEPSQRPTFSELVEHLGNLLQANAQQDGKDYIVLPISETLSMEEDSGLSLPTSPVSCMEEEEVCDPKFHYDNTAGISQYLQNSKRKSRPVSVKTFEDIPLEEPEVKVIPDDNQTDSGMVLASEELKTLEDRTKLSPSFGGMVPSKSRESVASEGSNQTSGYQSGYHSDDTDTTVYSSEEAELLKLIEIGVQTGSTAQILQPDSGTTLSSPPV

Sequence of PDGFRβ (Q05030 32-1097): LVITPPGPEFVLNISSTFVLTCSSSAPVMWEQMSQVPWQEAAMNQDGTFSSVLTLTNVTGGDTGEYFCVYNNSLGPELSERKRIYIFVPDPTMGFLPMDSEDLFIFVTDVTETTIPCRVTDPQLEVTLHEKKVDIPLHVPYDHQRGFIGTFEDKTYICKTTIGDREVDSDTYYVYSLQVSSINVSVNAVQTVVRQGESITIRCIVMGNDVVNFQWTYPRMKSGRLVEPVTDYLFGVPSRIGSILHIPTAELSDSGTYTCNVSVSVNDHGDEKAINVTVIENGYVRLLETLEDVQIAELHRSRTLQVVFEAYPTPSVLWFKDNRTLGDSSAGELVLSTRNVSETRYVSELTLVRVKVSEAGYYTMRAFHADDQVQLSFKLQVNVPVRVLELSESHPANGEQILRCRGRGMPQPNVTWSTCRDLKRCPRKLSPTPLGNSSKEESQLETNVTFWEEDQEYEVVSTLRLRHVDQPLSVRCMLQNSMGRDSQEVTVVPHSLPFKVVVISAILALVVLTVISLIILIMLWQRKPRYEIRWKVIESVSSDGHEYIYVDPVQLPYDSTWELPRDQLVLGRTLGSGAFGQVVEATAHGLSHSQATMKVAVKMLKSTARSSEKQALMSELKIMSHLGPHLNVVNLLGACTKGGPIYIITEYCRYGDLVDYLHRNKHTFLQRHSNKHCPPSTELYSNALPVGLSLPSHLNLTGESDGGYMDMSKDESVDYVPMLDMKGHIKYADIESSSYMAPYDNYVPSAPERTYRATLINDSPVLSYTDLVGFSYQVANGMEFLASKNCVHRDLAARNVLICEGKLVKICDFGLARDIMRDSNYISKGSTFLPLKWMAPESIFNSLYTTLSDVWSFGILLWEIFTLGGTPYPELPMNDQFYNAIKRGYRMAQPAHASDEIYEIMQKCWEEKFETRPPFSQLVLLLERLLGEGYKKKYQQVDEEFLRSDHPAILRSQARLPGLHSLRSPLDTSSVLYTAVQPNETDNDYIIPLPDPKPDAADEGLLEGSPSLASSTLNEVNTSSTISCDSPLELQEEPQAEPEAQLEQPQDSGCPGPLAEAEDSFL

| Compound | IC50 (PDGFRβ; read-out: PDGFR Cellular IC50) [µM] | IC50 (VEGFR2, unphosphorylated) [µM] | IC50 (PDGFRβ; PDGFR Cellular IC50) [µM] |
| --- | --- | --- | --- |
| Cc1ncc(NC(=O)C2CN(C(C)C)C2)cc1NC(=O)c1cnn2cc(-c3cnn(C)c3C)sc12 [Example 357, 2-(1,5-dimethyl-1H-pyrazol-4-yl)-N-(5-(1-isopropylazetidine-3-carboxamido)-2-methylpyridin-3-yl)pyrazolo[5,1-b]thiazole-7-carboxamide] | 0.0569 | > 7.5 |  |
| Cc1cnn(C)c1-c1cn2ncc(C(=O)Nc3cc(NC(=O)CN4CC(C)(C)C4)cnc3C)c2s1 [Example 389, 2-(1,4-dimethyl-1H-pyrazol-5-yl)-N-(5-(2-(3,3-dimethylazetidin-1-yl)acetamido)-2-methylpyridin-3-yl)pyrazolo[5,1-b]thiazole-7-carboxamide] | 0.0031 | > 7.5 |  |
| COCCn1cc(-c2cn3ncc(C(=O)Nc4cc(NC(=O)CN5CCCC6(CC6)C5)cnc4C)c3s2)cn1 [Example 335, N-(5-(2-(5-azaspiro[2.5]octan-5-yl)acetamido)-2-methylpyridin-3-yl)-2-(1-(2-methoxyethyl)-1H-pyrazol-4-yl)pyrazolo[5,1-b]thiazole-7-carboxamide] | 0.0035 | > 7.5 |  |
| COCCn1cc(-c2cn3ncc(C(=O)Nc4cc(NC(=O)CN5CCCCC5)cnc4C)c3s2)cn1 [Example 338, 2-(1-(2-methoxyethyl)-1H-pyrazol-4-yl)-N-(2-methyl-5-(2-(piperidin-1-yl)acetamido)pyridin-3-yl)pyrazolo[5,1-b]thiazole-7-carboxamide] | 0.0046 | > 7.5 |  |
| Cc1ncc(NC(=O)[C@H]2CCCN2C(C)C)cc1NC(=O)c1cnn2cc(-c3cnn4c3OCCC4)sc12 [Example 347, (R)-2-(6,7-dihydro-5H-pyrazolo[5,1-b][1,3]oxazin-3-yl)-N-(5-(1-isopropylpyrrolidine-2-carboxamido)-2-methylpyridin-3-yl)pyrazolo[5,1-b]thiazole-7-carboxamide] | 0.006 | > 7.5 |  |
| CCc1ncccc1-c1cn2ncc(C(=O)Nc3cc(NC(=O)CN4CC(C)(C)C4)cnc3C)c2s1 [Example 391, N-(5-(2-(3,3-dimethylazetidin-1-yl)acetamido)-2-methylpyridin-3-yl)-2-(2-ethylpyridin-3-yl)pyrazolo[5,1-b]thiazole-7-carboxamide] | 0.0104 | > 7.5 |  |
| Cc1ncc(NC(=O)C2CN(C(C)C)C2)cc1NC(=O)c1cnn2cc(-c3cn(C)nc3C)sc12 [Example 354, 2-(1,3-dimethyl-1H-pyrazol-4-yl)-N-(5-(1-isopropylazetidine-3-carboxamido)-2-methylpyridin-3-yl)pyrazolo[5,1-b]thiazole-7-carboxamide] | 0.0788 | > 7.5 |  |
| COc1ncccc1-c1cn2ncc(C(=O)Nc3cc(NC(=O)CN4CC(C)(OC)C4)cnc3C)c2s1 [Example 396, N-(5-(2-(3-methoxy-3-methylazetidin-1-yl)acetamido)-2-methylpyridin-3-yl)-2-(2-methoxypyridin-3-yl)pyrazolo[5,1-b]thiazole-7-carboxamide] | 0.0043 | > 7.5 |  |
| Cc1ncc(NC(=O)CN2CCCC23CCC3)cc1NC(=O)c1cnn2cc(-c3cnn(CCO)c3)sc12 [Example 29, N-(5-(2-(5-azaspiro[3.4]octan-5-yl)acetamido)-2-methylpyridin-3-yl)-2-(1-(2-hydroxyethyl)-1H-pyrazol-4-yl)pyrazolo[5,1-b]thiazole-7-carboxamide] | 0.005 | > 7.5 |  |
| Cc1ncc(NC(=O)CN2CCC[C@@H]2C)cc1NC(=O)c1cnn2cc(-c3cnn(C)c3)sc12 [Example 27, (S)-2-(1-methyl-1H-pyrazol-4-yl)-N-(2-methyl-5-(2-(2-methyl-pyrrolidin-1-yl)acetamido)pyridin-3-yl)pyrazolo[5,1-b]thiazole-7-carboxamide] | 0.0063 | > 7.5 |  |
| COCCn1cc(-c2cn3ncc(C(=O)Nc4cc(NC(=O)[C@H]5CCCN5C(C)C)cnc4C)c3s2)cn1 [Example 344, (R)—N-(5-(1-isopropylpyrrolidine-2-carboxamido)-2-methylpyridin-3-yl)-2-(1-(2-methoxyethyl)-1H-pyrazol-4-yl)pyrazolo[5,1-b]thiazole-7-carboxamide] | 0.0592 | > 7.5 |  |
| Cc1ncc(NC(=O)CN2C[C@H](C)O[C@@H](C)C2)cc1NC(=O)c1cnn2cc(-c3cnc(N)c(F)c3)sc12 (relative stereo) [Example 372, 2-(6-amino-5-fluoropyridin-3-yl)-N-(5-(2-(trans-2,6-dimethylmorpholino)acetamido)-2-methylpyridin-3-yl)pyrazolo[5,1-b]thiazole-7-carboxamide] | 0.0212 | > 2.5 |  |
| Cc1ncc(NC(=O)C[C@H]2CCCN2C(C)C)cc1NC(=O)c1cnn2cc(-c3cnn4c3OCCC4)sc12 [Example 351, (R)-2-(6,7-dihydro-5H-pyrazolo[5,1-b][1,3]oxazin-3-yl)-N-(5-(2-(1-isopropylpyrrolidin-2-yl)acetamido)-2-methylpyridin-3-yl)pyrazolo[5,1-b]thiazole-7-carboxamide] |  | > 7.5 | 0.0177 |
| Cc1ncc(NC(=O)CN2C[C@H](C)O[C@@H](C)C2)cc1NC(=O)c1cnn2cc(-c3cc[nH]c3)sc12 [Example 365, N-(5-(2-(2,6-trans-dimethylmorpholino)acetamido)-2-methylpyridin-3-yl)-2-(1H-pyrrol-3-yl)pyrazolo[5,1-b]thiazole-7-carboxamide] | 0.0048 | 0.596 |  |
| Cc1ncc(NC(=O)CN2C[C@H](C)O[C@@H](C)C2)cc1NC(=O)c1cnn2cc(-c3cnn4c3OCCC4)sc12 (relative stereo) [Example 375, 2-(6,7-dihydro-5H-pyrazolo[5,1-b][1,3]oxazin-3-yl)-N-(5-(2-(trans-2,6-dimethylmorpholino)acetamido)-2-methylpyridin-3-yl)pyrazolo[5,1-b]thiazole-7-carboxamide] | 0.0102 | > 0.833 |  |
| Cc1ncc(NC(=O)CN2CC(C)(C)C2)cc1NC(=O)c1cnn2cc(-c3cccnc3C)sc12 [Example 390, N-(5-(2-(3,3-dimethylazetidin-1-yl)acetamido)-2-methylpyridin-3-yl)-2-(2-methylpyridin-3-yl)pyrazolo[5,1-b]thiazole-7-carboxamide] | 0.0055 | > 7.5 |  |
| COc1ccc(-c2cn3ncc(C(=O)Nc4cc(NC(=O)CN5CC(C)(C)C5)cnc4C)c3s2)cn1 [Example 395, N-(5-(2-(3,3-dimethylazetidin-1-yl)acetamido)-2-methylpyridin-3-yl)-2-(6-methoxypyridin-3-yl)pyrazolo[5,1-b]thiazole-7-carboxamide] | 0.0062 | > 7.5 |  |
| Cc1ncc(NC(=O)CN2CCC(C)(C)C2)cc1NC(=O)c1cnn2cc(-c3cnn(CCO)c3)sc12 [Example 28, N-(5-(2-(3,3-dimethylpyrrolidin-1-yl)acetamido)-2-methylpyridin-3-yl)-2-(1-(2-hydroxyethyl)-1H-pyrazol-4-yl)pyrazolo[5,1-b]thiazole-7-carboxamide] | 0.0136 | > 7.5 |  |
| COC/C=C/c1cn2ncc(C(=O)Nc3cc(C(=O)NCCN4CCCC4(C)C)cnc3C)c2s1 [Example 361, (E)-N-(5-((2-(2,2-dimethylpyrrolidin-1-yl)ethyl)carbamoyl)-2-methylpyridin-3-yl)-2-(3-methoxyprop-1-en-1-yl)pyrazolo[5,1-b]thiazole-7-carboxamide] |  | > 7.5 | 0.0149 |
| COc1cccc(-c2cn3ncc(C(=O)Nc4cc(NC(=O)CN5CC(C)(C)C5)cnc4C)c3s2)n1 [Example 394, N-(5-(2-(3,3-dimethylazetidin-1-yl)acetamido)-2-methylpyridin-3-yl)-2-(6-methoxypyridin-2-yl)pyrazolo[5,1-b]thiazole-7-carboxamide] | 0.0018 | > 7.5 |  |
| COc1ncccc1-c1cn2ncc(C(=O)Nc3cc(C(=O)NCCN4CC(C)(C)C4)cnc3C)c2s1 [Example 387, N-(5-((2-(3,3-dimethylazetidin-1-yl)ethyl)carbamoyl)-2-methylpyridin-3-yl)-2-(2-methoxypyridin-3-yl)pyrazolo[5,1-b]thiazole-7-carboxamide] | 0.0069 | > 7.5 |  |
| COc1ncccc1-c1cn2ncc(C(=O)Nc3cc(NC(=O)CN4CC5(CCOCC5)C4)cnc3C)c2s1 [Example 403, N-(5-(2-(7-oxa-2-azaspiro[3.5]nonan-2-yl)acetamido)-2-methylpyridin-3-yl)-2-(2-methoxypyridin-3-yl)pyrazolo[5,1-b]thiazole-7-carboxamide carboxamide] | 0.0033 | > 7.5 |  |
| COc1ncccc1-c1cn2ncc(C(=O)Nc3cc(NC(=O)CN4CC(C)(C)C4)cnc3C)c2s1 [Example 369, N-(5-(2-(3,3-dimethylazetidin-1-yl)acetamido)-2-methylpyridin-3-yl)-2-(2-methoxypyridin-3-yl)pyrazolo[5,1-b]thiazole-7-carboxamide] | 0.0016 | > 7.5 |  |
| COc1ncccc1-c1cn2ncc(C(=O)Nc3cc(NC(=O)CN4CC(F)C4)cnc3C)c2s1 [Example 402, N-(5-(2-(3-fluoroazetidin-1-yl)acetamido)-2-methylpyridin-3-yl)-2-(2-methoxypyridin-3-yl)pyrazolo[5,1-b]thiazole-7-carboxamide] | 0.0054 | > 7.5 |  |
| Cc1ncc(NC(=O)CN2C[C@H](C)O[C@@H](C)C2)cc1NC(=O)c1cnn2cc(-c3c(C)n[nH]c3C)sc12 (relative stereo) [Example 373, 2-(3,5-dimethyl-1H-pyrazol-4-yl)-N-(5-(2-(trans-2,6-dimethylmorpholino)acetamido)-2-methylpyridin-3-yl)pyrazolo[5,1-b]thiazole-7-carboxamide] | 0.0567 | > 7.5 |  |
| COCCn1cc(-c2cn3ncc(C(=O)Nc4cc(NC(=O)CN5C[C@H]6CC[C@@H]5C6)cnc4C)c3s2)cn1 [Example 334, N-(5-(2-((1R,4S)-2-azabicyclo[2.2.1]heptan-2-yl)acetamido)-2-methylpyridin-3-yl)-2-(1-(2-methoxyethyl)-1H-pyrazol-4-yl)pyrazolo[5,1-b]thiazole-7-carboxamide] |  | > 7.5 | 0.0117 |
